This passage reports EC50 results from BindingDB's records for doi:10.1016/j.bmcl.2019.05.029 (Novira Therapeutics, 2019).

What is called EC50 is the concentration giving half of the maximal effect.

A short description of this test: Binding affinity to capsid protein in Hepatitis B virus infected in human HepG2.2.15 cells assessed as inhibition of HBV DNA replication incubated for 3 days followed by replacement of fresh medium containing compound and measured after 3 days by chemiluminescent assay.
For the compound `CN1CCCN(S(=O)(=O)c2cc(C(=O)Nc3ccc(F)c(Cl)c3)ccc2F)CC1=O`, the EC50 was 220 nM.

On to `CN1CCN(S(=O)(=O)c2cc(C(=O)Nc3ccc(F)c(Cl)c3)ccc2F)CC(O)C1` (centres undefined), for which the EC50 worked out at 470 nM. With `CC1(O)COCCN(S(=O)(=O)c2cc(C(=O)Nc3ccc(F)c(Cl)c3)ccc2F)C1` (centres undefined) the figure was 100 nM; with `O=C(Nc1ccc(F)c(Cl)c1)c1ccc(F)c(S(=O)(=O)N2CCCCC(CO)C2)c1` (centres undefined), 140 nM. With `CC(O)C1CCCCN(S(=O)(=O)c2cc(C(=O)Nc3ccc(F)c(Cl)c3)ccc2F)C1` (centres undefined) the figure was 140 nM; with `O=C(Nc1ccc(F)c(Cl)c1)c1ccc(F)c(S(=O)(=O)N2CCCCC(O)C2)c1` (centres undefined), 170 nM. With `O=C(Nc1ccc(F)c(Cl)c1)c1ccc(F)c(S(=O)(=O)N2CCOC[C@H](O)C2)c1` the figure was 63 nM; with `O=C(Nc1ccc(F)c(Cl)c1)c1ccc(F)c(S(=O)(=O)N2CCOCC(F)C2)c1` (centres undefined), 80 nM; with `O=C(Nc1ccc(F)c(Cl)c1)c1ccc(F)c(S(=O)(=O)N2CCCCC(O)CC2)c1` (centres undefined), 52 nM. On to `O=C(Nc1ccc(F)c(Cl)c1)c1ccc(F)c(S(=O)(=O)N2CCCCCC(O)C2)c1` (centres undefined), for which the EC50 worked out at 60 nM. With `O=C(Nc1ccc(F)c(Cl)c1)c1ccc(F)c(S(=O)(=O)N2CCCCCCC2O)c1` (centres undefined) the figure was 120 nM; with `CC1(O)CCCN(S(=O)(=O)c2cc(C(=O)Nc3ccc(F)c(Cl)c3)ccc2F)CC1` (centres undefined), 110 nM; with `CC1(O)CCCCN(S(=O)(=O)c2cc(C(=O)Nc3ccc(F)c(Cl)c3)ccc2F)C1` (centres undefined), 120 nM. The same measure for `O=C(Nc1ccc(F)c(Cl)c1)c1ccc(F)c(S(=O)(=O)N2CCCC(O)CC2)c1` (centres undefined): 140 nM. The same measure for `O=C(Nc1ccc(F)c(Cl)c1)c1ccc(F)c(S(=O)(=O)N2CCCCC(F)(F)C2)c1`: 140 nM; for `COC1COCCN(S(=O)(=O)c2cc(C(=O)Nc3ccc(F)c(Cl)c3)ccc2F)C1` (centres undefined): 130 nM. As for `O=C(Nc1ccc(F)c(Cl)c1)c1ccc(F)c(S(=O)(=O)N2CCOCC(O)C2)c1` (centres undefined), the EC50 amounted to 100 nM.

As for `O=C(Nc1ccc(F)c(Cl)c1)c1ccc(F)c(S(=O)(=O)N2CCOC[C@@H](O)C2)c1`, the EC50 amounted to 140 nM. For the compound `O=C(Nc1ccc(F)c(Cl)c1)c1ccc(F)c(S(=O)(=O)N2CCSCC(O)C2)c1` (centres undefined), the EC50 was determined as 170 nM.
